Results as given in US20260001928A1 (CORTERIA PHARMACEUTICALS, priority 2022, published 2026).
One block for each compound: values may come before it. *1 amine or outer side, *2 acyl side, *3 side chain or, on linkers, in order; H or OH if unused. Where a SMILES comes first, the peptide text is derived from it. Side-chain parts run from the residue outwards. [ ]: non-standard residue; d: D form. The star is where a group is joined. C18 diacid = O=C(O)CCCCCCCCCCCCCCCCC(=O)*; C16 diacid = O=C(O)CCCCCCCCCCCCCCC(=O)*; γGlu = O=C(O)[C@H](CCC(=O)[*:2])N[*:1]; C14 diacid = O=C(O)CCCCCCCCCCCCC(=O)*; NMeI = CC[C@H](C)[C@H](NC)C(=O)O; NMeV = CN[C@H](C(=O)O)C(C)C; Dap = NC[C@H](N)C(=O)O; AEEA = NCCOCCOCC(=O)O; Aib = CC(C)(N)C(=O)O

Assays:
[1] = molecular target: T1, human CRF2a receptor (Homo sapiens, UniProt Q13324); experiment: Activity at human CRF2a receptor, cAMP functional assay in TeloHEAC cells; type: cell-based; details: TeloHEAC cells stably expressing human CRF2a receptor, relative to urocortin 2 (100 nM = 100%)
T1 construct: expressed in transfected cells; host or cells: TeloHEAC cells
T1 sequence (Q13324 1-411): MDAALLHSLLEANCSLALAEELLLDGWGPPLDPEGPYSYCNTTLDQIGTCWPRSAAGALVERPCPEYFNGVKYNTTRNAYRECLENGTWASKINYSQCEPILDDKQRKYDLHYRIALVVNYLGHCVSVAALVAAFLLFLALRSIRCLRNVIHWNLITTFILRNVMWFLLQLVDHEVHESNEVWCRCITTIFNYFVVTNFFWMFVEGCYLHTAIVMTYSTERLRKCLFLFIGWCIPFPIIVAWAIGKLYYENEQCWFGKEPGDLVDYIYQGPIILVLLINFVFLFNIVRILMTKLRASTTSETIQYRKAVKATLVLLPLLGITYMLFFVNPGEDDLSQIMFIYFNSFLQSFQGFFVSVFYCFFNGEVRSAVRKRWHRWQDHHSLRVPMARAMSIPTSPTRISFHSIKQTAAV
Procedure, shortened: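 TeloHEAC cells stably expressing human CRF2a (10000 cells/well) were treated with 16-point 1:2 compound dilutions in HBSS/20 mM HEPES with IBMX for 30 min at 37° C. cAMP was read by HTRF (665/620 nm ratio). EC50 was the concentration giving 50% activation, with 100 nM urocortin 2 set as 100%.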

[2] = molecular target: T2, CFR1R receptor (Homo sapiens, UniProt P34998); experiment: Activity at anti-target CFR1R receptor, cAMP assay in CRF1R-overexpression CHO-K1 cells; type: cell-based; details: 100% = Sauvagine at 100 nM; for EC50: cAMP
T2 construct: host or cells: CHO-K1 (clone 2)
T2 sequence (P34998 24-415): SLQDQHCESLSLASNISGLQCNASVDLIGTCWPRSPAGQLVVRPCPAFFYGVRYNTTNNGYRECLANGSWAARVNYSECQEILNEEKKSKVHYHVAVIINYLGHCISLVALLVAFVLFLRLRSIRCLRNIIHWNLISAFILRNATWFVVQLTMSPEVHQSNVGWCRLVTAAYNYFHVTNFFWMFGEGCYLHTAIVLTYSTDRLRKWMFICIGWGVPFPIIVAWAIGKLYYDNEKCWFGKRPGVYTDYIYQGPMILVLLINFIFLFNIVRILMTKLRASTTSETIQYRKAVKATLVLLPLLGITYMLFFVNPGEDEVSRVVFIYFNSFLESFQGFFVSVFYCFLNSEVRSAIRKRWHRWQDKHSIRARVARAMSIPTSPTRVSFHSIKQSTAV
Procedure, shortened: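 Uses frozen stocks of CHO-K1 clone 2 cells overexpressing human CRF1R, plated at 4000 cells/well final, with cAMP measured by the same protocol as the TeloHAEC line. Full-activation control: 100 nM Sauvagine.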

SMILES: CC[C@H](C)[C@H](NC)C(=O)N[C@H](C(=O)N[C@@H](CC(C)C)C(=O)N[C@@H](CO)C(=O)N[C@@H](CC(C)C)C(=O)N[C@@H](CC(=O)O)C(=O)N[C@@H](C(=O)N1CCC[C@H]1C(=O)N[C@H](C(=O)N[C@@H](CCCCN)C(=O)N[C@@H](CC(C)C)C(=O)N[C@@H](CCCCNC(=O)CC[C@H](NC(=O)CCCCCCCCCCCCCCCCC(=O)O)C(=O)O)C(=O)N[C@@H](CCC(N)=O)C(=O)N[C@H](C(=O)N[C@@H](CC(C)C)C(=O)N[C@@H](CC(C)C)C(=O)N[C@@H](CCCCN)C(=O)N[C@@H](CCC(N)=O)C(=O)N[C@@H](CCC(=O)O)C(=O)N[C@@H](CCCNC(=N)N)C(=O)N[C@@H](CCC(N)=O)C(=O)N[C@@H](CCCCN)C(=O)N[C@@H](CCCCN)C(=O)N[C@@H](CCC(N)=O)C(=O)N[C@@H](CCCNC(=N)N)C(=O)N[C@@H](CCC(=O)O)C(=O)N[C@@H](CCC(N)=O)C(=O)N[C@@H](C)C(=O)N[C@@H](CCC(=O)O)C(=O)N[C@@H](CCCCN)C(=O)N[C@@H](CC(N)=O)C(=O)NC(C)(C)C(=O)N[C@@H](CCC(N)=O)C(=O)N[C@H](C(=O)N[C@@H](CC(C)C)C(=O)N[C@@H](CCC(=O)O)C(=O)N[C@@H](CCC(N)=O)C(=O)N[C@H](C(N)=O)C(C)C)[C@@H](C)CC)[C@@H](C)CC)[C@@H](C)CC)C(C)C)C(C)C [compound 23] (H-[NMeI]VLSLD[dV]PIKLK([γGlu-C18 diacid])QILLKQERQKKQREQAEKN[Aib]QILEQV-NH2)
EC50 [1]: 0.33 nM | Emax (% I) [2]: 35 % I | EC50 [2]: > 250 nM

SMILES: CC[C@H](C)[C@H](NC)C(=O)N[C@H](C(=O)N[C@@H](CC(C)C)C(=O)N[C@@H](CO)C(=O)N[C@@H](CC(C)C)C(=O)N[C@@H](CC(=O)O)C(=O)N[C@@H](C(=O)N1CCC[C@H]1C(=O)N[C@H](C(=O)N[C@@H](CCCCN)C(=O)N[C@@H](CC(C)C)C(=O)N[C@@H](CCCCNC(=O)COCCOCCNC(=O)COCCOCCNC(=O)CC[C@H](NC(=O)CCCCCCCCCCCCCCCCC(=O)O)C(=O)O)C(=O)N[C@@H](CCCCN)C(=O)N[C@H](C(=O)N[C@@H](CC(C)C)C(=O)N[C@@H](CC(C)C)C(=O)N[C@@H](CCC(=O)O)C(=O)N[C@@H](CCC(N)=O)C(=O)N[C@@H](CCC(=O)O)C(=O)N[C@@H](CCCCN)C(=O)N[C@@H](CCC(N)=O)C(=O)N[C@@H](CCCCN)C(=O)N[C@@H](CCCCN)C(=O)N[C@@H](CCC(N)=O)C(=O)N[C@@H](CCCNC(=N)N)C(=O)N[C@@H](CCC(=O)O)C(=O)N[C@@H](CCC(N)=O)C(=O)N[C@@H](C)C(=O)N[C@@H](CCC(=O)O)C(=O)N[C@H](C(=O)N[C@@H](CC(N)=O)C(=O)N[C@@H](CN)C(=O)N[C@@H](CCC(N)=O)C(=O)N[C@H](C(=O)N[C@@H](CC(C)C)C(=O)N[C@@H](C)C(=O)N[C@@H](CCC(N)=O)C(=O)N[C@H](C(N)=O)C(C)C)[C@@H](C)CC)[C@@H](C)O)[C@@H](C)CC)[C@@H](C)CC)C(C)C)C(C)C [compound 115] (H-[NMeI]VLSLD[dV]PIKLK([AEEA-AEEA-γGlu-C18 diacid])KILLEQEKQKKQREQAETN[Dap]QILAQV-NH2)
EC50 [1]: 0.76 nM | Emax (% I) [2]: 4 % I | EC50 [2]: > 250 nM

Further compounds by falling EC50 [1], results first:

EC50 [1]: 6.5 nM | Emax (% I) [2]: 1 % I | EC50 [2]: > 250 nM
SMILES: CC[C@H](C)[C@H](NC)C(=O)N[C@H](C(=O)N[C@@H](CC(C)C)C(=O)N[C@@H](CO)C(=O)N[C@@H](CC(C)C)C(=O)N[C@@H](CC(=O)O)C(=O)N[C@@H](C(=O)N1CCC[C@H]1C(=O)N[C@H](C(=O)N[C@@H](CCCCN)C(=O)N[C@@H](CC(C)C)C(=O)N[C@@H](CCCCNC(=O)COCCOCCNC(=O)COCCOCCNC(=O)CC[C@H](NC(=O)CCCCCCCCCCCCC(=O)O)C(=O)O)C(=O)N[C@@H](CCCCN)C(=O)N[C@H](C(=O)N[C@@H](CC(C)C)C(=O)N[C@@H](CC(C)C)C(=O)N[C@@H](CCC(=O)O)C(=O)N[C@@H](CCC(N)=O)C(=O)N[C@@H](CCC(=O)O)C(=O)N[C@@H](CCCCN)C(=O)N[C@@H](CCC(N)=O)C(=O)N[C@@H](CCCCN)C(=O)N[C@@H](CCCCN)C(=O)N[C@@H](CCC(N)=O)C(=O)N[C@@H](CCCNC(=N)N)C(=O)N[C@@H](CCC(=O)O)C(=O)N[C@@H](CCC(N)=O)C(=O)N[C@@H](C)C(=O)N[C@@H](CCC(=O)O)C(=O)N[C@H](C(=O)N[C@@H](CC(N)=O)C(=O)NC(C)(C)C(=O)N[C@@H](CCC(N)=O)C(=O)N[C@H](C(=O)N[C@@H](CC(C)C)C(=O)N[C@@H](C)C(=O)N[C@@H](CCC(N)=O)C(=O)N[C@H](C(N)=O)C(C)C)[C@@H](C)CC)[C@@H](C)O)[C@@H](C)CC)[C@@H](C)CC)C(C)C)C(C)C [compound 178] (H-[NMeI]VLSLD[dV]PIKLK([AEEA-AEEA-γGlu-C14 diacid])KILLEQEKQKKQREQAETN[Aib]QILAQV-NH2)

EC50 [1]: 2.97 nM | Emax (% I) [2]: 4 % I | EC50 [2]: > 250 nM
SMILES: CC[C@H](C)[C@H](NC(=O)[C@H](CCC(N)=O)NC(=O)C(C)(C)NC(=O)[C@H](CC(N)=O)NC(=O)[C@@H](NC(=O)[C@H](CCC(=O)O)NC(=O)[C@H](C)NC(=O)[C@H](CCC(N)=O)NC(=O)[C@H](CCC(=O)O)NC(=O)[C@H](CCCNC(=N)N)NC(=O)[C@H](CCC(N)=O)NC(=O)[C@H](CCCCN)NC(=O)[C@H](CCCCN)NC(=O)[C@H](CCC(N)=O)NC(=O)[C@H](CCCCN)NC(=O)[C@H](CCC(=O)O)NC(=O)[C@H](CCC(N)=O)NC(=O)[C@H](CCC(=O)O)NC(=O)[C@H](CC(C)C)NC(=O)[C@H](CC(C)C)NC(=O)[C@@H](NC(=O)[C@H](CCCCN)NC(=O)[C@H](CCCCNC(=O)CC[C@H](NC(=O)CCCCCCCCCCCCCCC(=O)O)C(=O)O)NC(=O)[C@H](CC(C)C)NC(=O)[C@H](CCCCN)NC(=O)[C@@H](NC(=O)[C@@H]1CCCN1C(=O)[C@H](NC(=O)[C@H](CC(=O)O)NC(=O)[C@H](CC(C)C)NC(=O)[C@H](CO)NC(=O)[C@H](CC(C)C)NC(=O)[C@@H](NC)C(C)C)C(C)C)[C@@H](C)CC)[C@@H](C)CC)[C@@H](C)O)C(=O)N[C@@H](CC(C)C)C(=O)N[C@@H](C)C(=O)N[C@@H](CCC(N)=O)C(=O)N[C@H](C(N)=O)C(C)C [compound 159] (H-[NMeV]LSLD[dV]PIKLK([γGlu-C16 diacid])KILLEQEKQKKQREQAETN[Aib]QILAQV-NH2)

EC50 [1]: 1.28 nM | Emax (% I) [2]: 5 % I | EC50 [2]: > 250 nM
SMILES: CC[C@H](C)[C@H](NC(C)=O)C(=O)N[C@H](C(=O)N[C@@H](CC(C)C)C(=O)N[C@@H](CO)C(=O)N[C@@H](CC(C)C)C(=O)N[C@@H](CC(=O)O)C(=O)N[C@@H](C(=O)N1CCC[C@H]1C(=O)N[C@H](C(=O)N[C@@H](CCCCN)C(=O)N[C@@H](CC(C)C)C(=O)N[C@@H](CCCCNC(=O)COCCOCCNC(=O)COCCOCCNC(=O)CC[C@H](NC(=O)CCCCCCCCCCCCCCCCC(=O)O)C(=O)O)C(=O)N[C@@H](CCCCN)C(=O)N[C@H](C(=O)N[C@@H](CC(C)C)C(=O)N[C@@H](CC(C)C)C(=O)N[C@@H](CCC(=O)O)C(=O)N[C@@H](CCC(N)=O)C(=O)N[C@@H](CCC(=O)O)C(=O)N[C@@H](CCCCN)C(=O)N[C@@H](CCC(N)=O)C(=O)N[C@@H](CCCCN)C(=O)NC(C)(C)C(=O)N[C@@H](CCC(N)=O)C(=O)N[C@@H](CCCNC(=N)N)C(=O)N[C@@H](CCC(=O)O)C(=O)N[C@@H](CCC(N)=O)C(=O)N[C@@H](C)C(=O)N[C@@H](CCC(=O)O)C(=O)N[C@H](C(=O)N[C@@H](CC(N)=O)C(=O)NC(C)(C)C(=O)N[C@@H](CCC(N)=O)C(=O)N[C@H](C(=O)N[C@@H](CC(C)C)C(=O)N[C@@H](C)C(=O)N[C@@H](CCC(N)=O)C(=O)N[C@H](C(N)=O)C(C)C)[C@@H](C)CC)[C@@H](C)O)[C@@H](C)CC)[C@@H](C)CC)C(C)C)C(C)C [compound 197] (Ac-IVLSLD[dV]PIKLK([AEEA-AEEA-γGlu-C18 diacid])KILLEQEKQK[Aib]QREQAETN[Aib]QILAQV-NH2)
